Data from US20210008175A1, “BACTERIOPHAGE LYSIN AND ANTIBIOTIC COMBINATIONS AGAINST GRAM POSITIVE BACTERIA” (priority 2012, published 2021).
Values after ≈ are worked out from the molar mass of the structure shown. Where two headings read alike, the source gives them in different places. Marks after values point to notes of the source that are not given here.

Key:
Staphylococcus aureus = assay: MIC, broth microdilution (CLSI M07-A9); assay type: cell-based; conditions: for MIC90: with reducing agent
[1] = system: Staphylococcus aureus (MRSA and MSSA strains); assay: Time kill assay, single agents at 1×MIC (CLSI); assay type: cell-based
MRSA S. aureus strains = assay: Dual agent MIC assay (PlySs2 and daptomycin together, broth microdilution); assay type: cell-based; conditions: for MIC combo: PlySs2 and daptomycin combined; for MIC: Staphylococcus aureus, MRSA
S. aureus [2] = assay: Cell envelope binding of BODIPY-fluorescein-labeled antibiotics; assay type: cell-based
Method: As a complement to the synergy studies, daptomycin and vancomycin cell envelope-binding was examined using BODIPY-fluorescein-labeled antibiotics in the presence and absence of sub-MIC levels of CF-301. […] Similarly, cell wall-labeling with vancomycin occurs within 5 minutes in the presence of CF-301 (⅛^th MIC) versus 30 minutes without CF-301 (FIG. 20B). For both antibiotics, the labeling was first observed at bacterial division planes.

[3] = system: MRSA strain MW2 and MSSA strain ATCC 29213; assay: MIC in the presence of surfactant (Survanta), broth microdilution; assay type: cell-based, Staphylococcus aureus
MRSA strain 269 (MW2) = assay: Combination MIC study in the presence of 15% surfactant (Survanta); assay type: cell-based, Staphylococcus aureus; conditions: PlySs2 plus daptomycin
S. aureus [4] = assay: Murine bacteremia model, survival; assay type: in vivo, BALB/c mice
[5] = system: MRSA strain ATCC 700699 and MSSA strain ATCC 25923; assay: microbe, parasite or virus in culture; assay type: cell-based, Staphylococcus aureus; conditions: Staphylococcus aureus
[6] = system: MRSA Staphylococcus aureus strain (MW2); assay: microbe, parasite or virus in culture; assay type: cell-based; conditions: for MIC: Staphylococcus aureus, MRSA
[7] = high challenge (10^9 CFU MRSA MW2), dosing at 2 hours, daptomycin 50 mg/kg once daily, PlySs2 5.25 mg/kg (FIG. 27B)

## CCCCCCCCCC(=O)N[C@@H](Cc1c[nH]c2ccccc12)C(=O)N[C@H](CC(N)=O)C(=O)N[C@@H](CC(=O)O)C(=O)N[C@@H]1C(=O)NCC(=O)N[C@@H](CCCN)C(=O)N[C@@H](CC(=O)O)C(=O)N[C@H](C)C(=O)N[C@@H](CC(=O)O)C(=O)NCC(=O)N[C@H](CO)C(=O)N[C@@H]([C@H](C)CC(=O)O)C(=O)N[C@@H](CC(=O)c2ccccc2N)C(=O)O[C@@H]1C [Daptomycin]
Staphylococcus aureus; DRSA (n = 8)
  MIC90: 16
Staphylococcus aureus; LRSA (n = 5)
  MIC90: 1
Staphylococcus aureus; MRSA (n = 45)
  MIC90: 1
Staphylococcus aureus; MSSA (n-28)
  MIC90: 1
Staphylococcus aureus; Staphylococcus aureus, DRSA (n = 8), read-out: MIC90
  MIC90: 9.9 µM (≈ 16 µg/mL)
Staphylococcus aureus; Staphylococcus aureus, LRSA (n = 5), read-out: MIC90
  MIC90: 0.6 µM (≈ 0.972 µg/mL)
Staphylococcus aureus; Staphylococcus aureus, MRSA, MRSA (n = 45), read-out: MIC90
  MIC90: 0.6 µM (≈ 0.972 µg/mL)
Staphylococcus aureus; Staphylococcus aureus, MSSA, MSSA (n-28), read-out: MIC90
  MIC90: 0.6 µM (≈ 0.972 µg/mL)
Staphylococcus aureus; Staphylococcus aureus, VISA, VISA (n = 10), read-out: MIC90
  MIC90: 4.9 µM (≈ 7.94 µg/mL)
Staphylococcus aureus; Staphylococcus aureus, VRSA, VRSA (n = 14), read-out: MIC90
  MIC90: 0.6 µM (≈ 0.972 µg/mL)
Staphylococcus aureus; VISA (n = 10)
  MIC90: 8
Staphylococcus aureus; VRSA (n = 14)
  MIC90: 1
[1]; 1×MIC, 20 MSSA and 42 MRSA strains
  time to reach bactericidal levels (≥3-log10 reduction in CFUs): 6 hours
MRSA S. aureus strains; MRSA strain 223
  Fold reduction: 128
  MIC combo: 0.0075 µg/mL
MRSA S. aureus strains; MRSA strain 241
  Fold reduction: 256
  MIC combo: 0.0037 µg/mL
MRSA S. aureus strains; MRSA strain 263
  Fold reduction: 128
  MIC combo: 0.0075 µg/mL
MRSA S. aureus strains; MRSA strain 269 (MW2)
  Fold reduction: 64
  MIC combo: 0.015 µg/mL
MRSA S. aureus strains; MRSA strain 270
  Fold reduction: 64
  MIC combo: 0.015 µg/mL
MRSA S. aureus strains; MRSA strain 553
  Fold reduction: 128
  MIC combo: 0.0075 µg/mL
MRSA S. aureus strains; MRSA strain 650
  Fold reduction: 64
  MIC combo: 0.015 µg/mL
MRSA S. aureus strains; MRSA strain 827
  Fold reduction: 128
  MIC combo: 0.0075 µg/mL
MRSA S. aureus strains; MRSA strain 828
  Fold reduction: 128
  MIC combo: 0.0075 µg/mL
MRSA S. aureus strains; MRSA strain 829
  Fold reduction: 128
  MIC combo: 0.0075 µg/mL
MRSA S. aureus strains; MRSA strain 830
  Fold reduction: 64
  MIC combo: 0.015 µg/mL
MRSA S. aureus strains; MRSA strain 833
  Fold reduction: 128
  MIC combo: 0.0075 µg/mL
MRSA S. aureus strains; PlySs2 and daptomycin together, a dozen MRSA strains
  fold reduction in the effective MIC: 16-256 fold
MRSA S. aureus strains; MRSA strain 223, single-agent, read-out: MIC alone
  MIC: 1 µg/mL (≈ 0.617 µM)
MRSA S. aureus strains; MRSA strain 241, single-agent, read-out: MIC alone
  MIC: 1 µg/mL (≈ 0.617 µM)
MRSA S. aureus strains; MRSA strain 263, single-agent, read-out: MIC alone
  MIC: 1 µg/mL (≈ 0.617 µM)
MRSA S. aureus strains; MRSA strain 269 (MW2), single-agent, read-out: MIC alone
  MIC: 1 µg/mL (≈ 0.617 µM)
MRSA S. aureus strains; MRSA strain 270, single-agent, read-out: MIC alone
  MIC: 1 µg/mL (≈ 0.617 µM)
MRSA S. aureus strains; MRSA strain 553, single-agent, read-out: MIC alone
  MIC: 1 µg/mL (≈ 0.617 µM)
MRSA S. aureus strains; MRSA strain 650, single-agent, read-out: MIC alone
  MIC: 1 µg/mL (≈ 0.617 µM)
MRSA S. aureus strains; MRSA strain 827, single-agent, read-out: MIC alone
  MIC: 1 µg/mL (≈ 0.617 µM)
MRSA S. aureus strains; MRSA strain 828, single-agent, read-out: MIC alone
  MIC: 1 µg/mL (≈ 0.617 µM)
MRSA S. aureus strains; MRSA strain 829, single-agent, read-out: MIC alone
  MIC: 1 µg/mL (≈ 0.617 µM)
MRSA S. aureus strains; MRSA strain 830, single-agent, read-out: MIC alone
  MIC: 1 µg/mL (≈ 0.617 µM)
MRSA S. aureus strains; MRSA strain 833, single-agent, read-out: MIC alone
  MIC: 1 µg/mL (≈ 0.617 µM)
MRSA S. aureus strains; daptomycin as single agent, read-out: MIC
  MIC: 1 µg/mL (≈ 0.617 µM)
MRSA S. aureus strains; daptomycin with 0.25× MIC PlySs2, read-out: MIC
  MIC: 0.0075 µg/mL (≈ 0.00463 µM)
MRSA S. aureus strains; daptomycin with 0.25× MIC PlySs2
  decrease of MIC: 128 fold
MRSA S. aureus strains; daptomycin with PlySs2, across 12 MRSA strains
  degree of potency enhancement: 64 to 256 fold
S. aureus [2]; in the presence of CF-301 at 1/32nd MIC
  time to antibiotic penetration (BODIPY-labeled daptomycin binding): 15 min
S. aureus [2]; without CF-301
  time to antibiotic penetration (BODIPY-labeled daptomycin binding): 180 min
[3]; Survanta, up to 15%
  inhibition of MIC by surfactant: up to 256 fold
[3]; surfactant concentration of 1.25%
  inhibition of MIC by surfactant: more than 20 fold
MRSA strain 269 (MW2)
  effective concentration in combination as fraction of MIC: 1/1024
  most dilute concentration in combination that still inhibits growth: 0.25 µg/mL
S. aureus [4]; [7]
  24 hour survival rate: 47%
  72 hour survival rate: 31%
S. aureus [4]; low challenge model (up to 7×10^6 CFU MRSA MW2), single dose at 4 hours, PlySs2 1.25 mg/kg, daptomycin 2 mg/kg
  survival at 72 hours: 23%
[5]; 504 h, read-out: MIC in daptomycin resistant clones
  MIC: 18 µg/mL (≈ 11.1 µM)
[5]; read-out: MIC before daptomycin resistance selection
  MIC: 1 µg/mL (≈ 0.617 µM)
[6]; read-out: daptomycin MIC, ending values, passaged with PlySs2 (4 ug/ml) plus daptomycin, 30-day study
  MIC: 4 µg/mL
[6]; read-out: daptomycin MIC, ending values, three daptomycin-only cultures, 30-day study
  MIC: 128 µg/mL (≈ 79 µM)
[6]; before serial passage
  antibiotic MIC, starting value: 1 µg/mL
[6]; daptomycin-only cultures, 30-day study
  increase of daptomycin MIC: 64 to 128 fold
[6]; passaged with PlySs2 (4 ug/ml) plus daptomycin
  increase of daptomycin MIC: 4 fold
[6]; three daptomycin-only cultures, 30-day study
  daptomycin MIC, ending values: 64 µg/mL

## CC(=O)NC[C@H]1CN(c2ccc(N3CCOCC3)c(F)c2)C(=O)O1 [Linezolid]
Staphylococcus aureus; DRSA (n = 8)
  MIC50/90: 2
  MIC50/90 [uM]: 5.7 µM (≈ 1.92 µg/mL)
Staphylococcus aureus; LRSA (n = 5)
  MIC50/90: >64
  MIC50/90 [uM]: >183 µM
Staphylococcus aureus; MRSA (n = 45)
  MIC50/90: 2
  MIC50/90 [uM]: 5.7 µM (≈ 1.92 µg/mL)
Staphylococcus aureus; MSSA (n-28)
  MIC50/90: 2
  MIC50/90 [uM]: 5.7 µM (≈ 1.92 µg/mL)
Staphylococcus aureus; VISA (n = 10)
  MIC50/90: 2
  MIC50/90 [uM]: 5.7 µM (≈ 1.92 µg/mL)
Staphylococcus aureus; VRSA (n = 14)
  MIC50/90: 2
  MIC50/90 [uM]: 5.7 µM (≈ 1.92 µg/mL)

## Cc1onc(-c2ccccc2)c1C(=O)N[C@@H]1C(=O)N2[C@@H]1SC(C)(C)[C@@H]2C(=O)O [Oxacillin, oxacillin]
Staphylococcus aureus; MRSA (n = 45)
  MIC50/90: >4*
  MIC50/90 [uM]: >10.0 µM
[1]; 1×MIC
  kill within 6 hours: 2 log10
[1]; MSSA strains
  relative effectiveness among antibiotic agents: least effective
